Data from the OligoGym collection.
After the bases stand the sugars from the 5' end (letter, count) and the backbone: PS all phosphorothioate, else s phosphorothioate and o phosphodiester by linkage. Methylation of C is not given here. l = locked nucleic acid (LNA); d = 2'-deoxy (DNA)

Biological target: SNHG14
Settings: ASO
[1] = Mouse Primary Neuronal Cell, 0.005 µM

Row | Sequence | target mRNA inhibition (Human Neuronal Cell, 0.2 µM) [%] | target mRNA inhibition (Human Neuronal Cell, 1 µM) [%] | target mRNA inhibition (Human Neuronal Cell, 7.5 µM) [%] | further results
1 | ACATGTCCCTTTATAT (sugars l3 d10 l3, PS) | 1 | -13 |  | target mRNA inhibition (Human Neuronal Cell, 5 µM): 6%; target mRNA inhibition [1]: 88.2%
2 | ACCTACATCTCATACTT (sugars l2 d13 l2, PS) | 3 | -18 |  | target mRNA inhibition (Human Neuronal Cell, 5 µM): 7%; target mRNA inhibition [1]: 88.6%
3 | ACCTACATCTCATACTT (sugars l3 d11 l3, PS) | 1 | -10 |  | target mRNA inhibition (Human Neuronal Cell, 5 µM): 6%; target mRNA inhibition [1]: 94.2%
4 | ACTCTGCAATACACCA (sugars l3 d10 l3, PS) | 52 | 56 |  | 
5 | ACTCTGCAATACACCAA (sugars l2 d1 l2 d9 l3, PS) |  |  | 55 | 
6 | ACTCTGCAATACACCAA (sugars l2 d11 l4, PS) |  |  | 59 | 
7 | ACTCTGCAATACACCAA (sugars lddldddddddldldll, PS) |  |  | 66 | 
8 | ACTCTGCAATACACCAA (sugars lldlddddddddlldll, PS) |  |  | 65 | 
9 | ACTCTTTAGATTCATC (sugars l2 d10 l4, PS) | 53 | 44 |  | 
10 | ACTGTTTATACCCTTTC (sugars l2 d9 l1 d3 l2, PS) |  |  | 49 | 
11 | ACTGTTTATACCCTTTC (sugars ldddlddddddlddlll, PS) |  |  | 53 | 
12 | ACTGTTTATACCCTTTC (sugars ldlddddddddldldll, PS) |  |  | 63 | 
13 | ACTGTTTATACCCTTTCC (sugars l1 d3 l1 d11 l2, PS) |  |  | 49 | 
14 | ACTGTTTATACCCTTTCC (sugars lddldlddddddddddll, PS) |  |  | 53 | 
15 | ACTTCCAGATTTCTACA (sugars l2 d11 l4, PS) | 54 | 63 |  | 
16 | AGACTAATCCTCTTAA (sugars l3 d10 l3, PS) | 38 | 52 |  | 
17 | AGATCATTCTCAACAATTA (sugars ldldlldddddddddddll, PS) |  |  | 57 | 
18 | AGCAACATTATTAACCAC (sugars llldlddddddddlddll, PS) |  |  | 46 | 
19 | AGCAACATTATTAACCACC (sugars l1 d15 l3, PS) |  |  | 38 | 
20 | AGCAACATTATTAACCACC (sugars l2 d11 l1 d3 l2, PS) |  |  | 48 | 
21 | AGCAACATTATTAACCACC (sugars lddlldddddddlddldll, PS) |  |  | 46 | 
22 | AGCTTTTAACCAGAGT (sugars l2 d10 l4, PS) |  |  | 81 | 

Row | Sequence | target mRNA inhibition (Human Neuronal Cell, 0.2 µM) [%] | target mRNA inhibition (Human Neuronal Cell, 1 µM) [%] | target mRNA inhibition (Human Neuronal Cell, 7.5 µM) [%] | further results
23 | AGCTTTTAACCAGAGTGGC (sugars l1 d16 l2, PS) |  |  | 56 | 
24 | AGCTTTTAACCAGAGTGGCA (sugars l1 d17 l2, PS) |  |  | 64 | 
25 | AGTTCACTACTATTAC (sugars l3 d10 l3, PS) | 52 | 63 |  | 
26 | AGTTCTACTATACTTTC (sugars l1 d10 l6, PS) |  |  | 47 | 
27 | AGTTCTACTATACTTTC (sugars l3 d8 l2 d2 l2, PS) |  |  | 12 | 
28 | AGTTCTACTATACTTTCC (sugars l1 d2 l1 d12 l2, PS) |  |  | 43 | 
29 | AGTTCTACTATACTTTCC (sugars l1 d13 l1 d1 l2, PS) |  |  | 47 | 
30 | ATATACCCAAAGGCACCT (sugars l3 d12 l3, PS) | -13 | 15 |  | target mRNA inhibition (Human Neuronal Cell, 5 µM): 21%
31 | ATATTGATTCAATTCCC (sugars l2 d9 l2 d1 l3, PS) |  |  | 66 | 
32 | ATATTGATTCAATTCCC (sugars lddlldddddddlldll, PS) |  |  | 63 | 
33 | ATATTGATTCAATTCCC (sugars ldlddddddddlddlll, PS) |  |  | 67 | 
34 | ATATTGATTCAATTCCC (sugars ldldldddddddldlll, PS) |  |  | 70 | 
35 | ATCAATATCTTCTCAC (sugars l3 d10 l3, PS) | 54 | 62 |  | 
36 | ATCATTCTCAACAATTA (sugars l4 d11 l2, PS) | 59 | 70 |  | 
37 | ATCATTCTCAACAATTAAA (sugars l1 d1 l4 d6 l7, PS) |  |  | 13 | 
38 | ATCATTCTCAACAATTAAA (sugars l4 d8 l7, PS) |  |  | 27 | 
39 | ATCATTCTCAACAATTAAA (sugars llllldddddddlldldll, PS) |  |  | 41 | 
40 | ATCTCAACTACCATTT (sugars l4 d10 l2, PS) | 67 | 67 |  | 
41 | ATCTCATGACCACCTA (sugars l3 d10 l3, PS) | 60 | 70 |  | 
42 | ATCTCATGACCACCTAA (sugars l1 d3 l1 d8 l4, PS) |  |  | 58 | 
43 | ATCTCATGACCACCTAA (sugars l3 d11 l3, PS) | 54 | 56 |  | 
44 | ATCTCATGACCACCTAA (sugars lddlldddddddldlll, PS) |  |  | 68 | 
